Assay results published in ChEMBL document CHEMBL3639268, “Derivatives of N-acyl-N‚Ä=-phenylpiperazine useful (inter alia) for the prophylaxis or treatment of diabetes” (2014).

Molecular target: Retinol-binding protein 4 (Homo sapiens, UniProt P02753)
Test: Binding Assay: Streptavidin (20 ul) (10 ug/ml Streptavidin type II (Wako Pure Chemical Industries, Ltd.), 10 mM Tris-HCl (pH 7.5), 10 mM NaCl) was added to a 384 well black plate (Nunc MaxiSorp, Thermo Fisher Scientific Inc.), and the plate was subjected to centrifugation (1000 rpm, 1 min) and coated overnight at 4 C. The plate was washed twice with PBST (PBS, 0.05% Tween 20, 100 ul/well) and blocked with 25% Block Ace (Snow Brand Milk Products Co., Ltd., PBS, 100 ul/well). The plate was subjected to centrifugation (1000 rpm, 1 min) and incubated at room temperature for 4 hr or overnight at 4 C. The plate was washed twice with PBST (PBS, 0.05% Tween 20, 100 ul/well), and biotinylate human TTR (stock solution concentration 1.0 mg/ml) diluted 750-fold with PBST was added at 20 ul/well. The plate was subjected to centrifugation (1000 rpm, 1 min) and stood still at room temperature for 1.5 hr or overnight at 4 C. The plate was washed 3 times with PBST (100 ul/well).

IC50: 15 nM
SMILES: CC(C)(C)c1ccccc1N1CCN(C(=O)c2nc[nH]n2)CC1
